# pKi: −log10 of the molar value.
# Target: T1, Recombinant IKKβ (Homo sapiens, UniProt O14920)
# T1 construct: purchased Millipore, Dundee, UK
# T1 sequence (O14920 1-756): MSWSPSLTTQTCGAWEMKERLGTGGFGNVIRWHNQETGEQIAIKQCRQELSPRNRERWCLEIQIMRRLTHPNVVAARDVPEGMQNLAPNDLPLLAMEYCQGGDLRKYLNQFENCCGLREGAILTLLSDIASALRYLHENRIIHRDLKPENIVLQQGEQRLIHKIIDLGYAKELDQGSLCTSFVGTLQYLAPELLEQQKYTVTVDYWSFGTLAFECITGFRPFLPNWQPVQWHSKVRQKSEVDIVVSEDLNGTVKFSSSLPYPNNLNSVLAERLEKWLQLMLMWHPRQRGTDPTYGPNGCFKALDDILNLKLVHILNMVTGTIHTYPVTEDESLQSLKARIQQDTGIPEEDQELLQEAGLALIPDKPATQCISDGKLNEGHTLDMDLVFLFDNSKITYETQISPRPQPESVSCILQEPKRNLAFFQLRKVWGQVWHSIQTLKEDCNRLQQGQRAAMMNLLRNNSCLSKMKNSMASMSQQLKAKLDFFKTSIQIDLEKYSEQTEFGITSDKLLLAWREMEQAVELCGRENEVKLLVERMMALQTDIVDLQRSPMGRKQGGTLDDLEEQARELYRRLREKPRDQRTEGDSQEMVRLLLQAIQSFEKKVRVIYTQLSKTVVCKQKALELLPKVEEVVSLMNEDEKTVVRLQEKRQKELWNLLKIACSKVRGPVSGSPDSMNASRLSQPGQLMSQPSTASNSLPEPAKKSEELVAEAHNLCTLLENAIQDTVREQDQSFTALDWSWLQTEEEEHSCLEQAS
# Assay: DELFIA IKKβ kinase assay (apparent Ki, Cheng-Prusoff)
# Type: biochemical
# Conditions: DELFIA assay (first line of an example)
# Summary of the method: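 Recombinant IKKα or IKKβ (37 nM) with 0.375 μM biotinylated IκB-α (Ser32) peptide and 40 μM ATP in 40 mM Tris-HCl pH 7.5, 20 mM MgCl2, 60 min at 30° C. Phospho-substrate captured on streptavidin and detected by anti-phospho-IκB-α plus europium anti-mouse IgG time-resolved fluorescence; apparent Ki via Cheng-Prusoff.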
row,Compound,pKi
1,"CC(C)(C)Cc1cc2c(-c3ccc4[nH]nc(N)c4c3)ccnc2[nH]1 [Example 220, 5-(2-Neopentyl-1H-pyrrolo[2,3-b]pyridin-4-yl)-1H-indazol-3-amine]",6.08
2,"C#Cc1cc(-c2ccnc3[nH]ccc23)cc2c(N)n[nH]c12 [Example 200, 7-Ethynyl-5-(1H-pyrrolo[2,3-b]pyridin-4-yl)-1H-indazol-3-amine]",6.86
3,"CC(C)(C)C#Cc1cc(-c2ccnc3[nH]ccc23)cc2c(N)n[nH]c12 [Example 201, 7-(3,3-Dimethylbut-1-yn-1-yl)-5-(1H-pyrrolo[2,3-b]pyridin-4-yl)-1H-indazol-3-amine]",5.86
4,"CC(C)(C)OCc1cc2c(-c3ccc4[nH]nc(N)c4c3)ccnc2[nH]1 [Example 227, 5-(2-(tert-Butoxymethyl)-1H-pyrrolo[2,3-b]pyridin-4-yl)-1H-indazol-3-amine]",6.12
5,"CC(C)(C)NCc1cc2c(-c3ccc4[nH]nc(N)c4c3)ccnc2[nH]1 [Example 248, 5-(2-((tert-Butylamino)methyl)-1H-pyrrolo[2,3-b]pyridine-4-yl)-1H-indazol-3-amine]",5.40
6,"Nc1n[nH]c2ccc(-c3ccnc4[nH]c(CC5CCOCC5)cc34)cc12 [Example 230, 5-(2-((tetrahydro-2H-pyran-4-yl)methyl)-1H-pyrrolo[2,3-b]pyridin-4-yl)-1H-indazol-3-amine]",6.59
7,"Nc1n[nH]c2ccc(-c3ccnc4[nH]c(C(=O)NC5CCCCC5)cc34)cc12 [Example 236, 4-(3-Amino-1H-indazol-5-yl)-N-cyclohexyl-1H-pyrrolo[2,3-b]pyridine-2-carboxamide]",7.10
8,Nc1n[nH]c2ccc(-c3ccnc4[nH]c(CO)cc34)cc12 [Example 224],6.30
9,"Nc1n[nH]c2c(C#CCCCN3CCOCC3)cc(-c3ccnc4[nH]ccc34)cc12 [Example 210, 7-(5-Morpholinopent-1-yn-1-yl)-5-(1H-pyrrolo[2,3-b]pyridin-4-yl)-1H-indazol-3-amine]",5.51
10,"Nc1n[nH]c2ccc(-c3ccnc4[nH]c(CCCN5CCCCC5)cc34)cc12 [Example 269, 5-(2-(3-(Piperidin-1-yl)propyl)-1H-pyrrolo[2,3-b]pyridin-4-yl)-1H-indazol-3-amine]",6.29
11,"Nc1n[nH]c2ccc(-c3ccnc4[nH]c(CN5CCCCC5)cc34)cc12 [Example 260, 5-(2-(Piperidin-1-ylmethyl)-1H-pyrrolo[2,3-b]pyridine-4-yl)-1H-indazol-3-amine]",5.76
12,"Nc1n[nH]c2ccc(-c3ccnc4[nH]c(CNC5CCCCC5)cc34)cc12 [Example 251, 5-(2-((cyclohexylamino)methyl)-1H-pyrrolo[2,3-b]339yridine-4-yl)-1H-indazol-3-amine]",5.89
13,"Nc1n[nH]c2ccc(-c3ccnc4[nH]c(CC5CCCCC5)cc34)cc12 [Example 221, 5-(2-(Cyclohexylmethyl)-1H-pyrrolo[2,3-b]pyridin-4-yl)-1H-indazol-3-amine]",6.34

# Same assay, conditions: non-italicised figure: DELFIA assay
row,Compound,pKi
1,"CC(C)(O)C#Cc1cc(-c2ccnc(N)c2)cc2c(N)n[nH]c12 [Example 140, 4-(3-Amino-5-(2-aminopyridin-4-yl)-1H-indazol-7-yl)-2-methylbut-3-yn-2-ol]",5.52
2,"CC(C)(N)C#Cc1c(-c2ccc3[nH]nc(N)c3c2)ccnc1N [Example 92, 5-(2-Amino-3-(3-amino-3-methylbut-1-yn-1-yl)pyridin-4-yl)-1H-indazol-3-amine]",6.49
3,"Nc1nccc(-c2ccc3[nH]nc(N)c3c2)c1C#CCO [Example 83, 3-(2-Amino-4-(3-amino-1H-indazol-5-yl)pyridine-3-yl)prop-2-yn-1-ol]",6.40
4,"Nc1nccc(-c2ccc3[nH]nc(N)c3c2)c1C#CCCC(=O)N1CCOCC1 [Example 99, 5-(2-Amino-4-(3-amino-1H-indazol-5-yl)pyridine-3-yl)-1-morpholinopent-4-yn-1-one]",6.27
5,"CC(C)(C)OCC#Cc1c(-c2ccc3[nH]nc(N)c3c2)ccnc1N [Example 88, 5-(2-Amino-3-(3-(tert-butoxy)prop-1-yn-1-yl)pyridine-4-yl)-1H-indazol-3-amine]",5.63
6,"Nc1nccc(-c2ccc3[nH]nc(N)c3c2)c1C#CCCN1CCCCC1 [Example 93, 5-(2-Amino-3-(4-(piperidin-1-yl)but-1-yn-1-yl)pyridin-4-yl)-1H-indazol-3-amine]",6.06
